From ChEMBL document CHEMBL3621082, “Rational design of proteinprotein interaction inhibitors” (Medchemcomm, 2015)

Key:
[1] = Inhibition of HIV1 gp41; parameters: species or system Human immunodeficiency virus 1
[2] = molecular target: Neuropilin-1 (Homo sapiens, UniProt O14786); assay: Binding affinity to NRP1 (unknown origin) assessed as reduction in […]VEGFA (165) protein interaction
[3] = Antiproliferative activity against breast cancer cells (unknown origin); format: functional, cell-based; conditions: Cancer cell lines
[4] = test system: MCF7; assay: Cytotoxicity against human MCF7 cells; format: functional, cell-based
[5] = molecular target: Annexin A2/S100-A10 (Homo sapiens, UniProt P07355+P60903); assay: Inhibition of Annexin A2/Protein S100-A10 (unknown origin) protein interaction by competitive fluorescent binding assay
Chain of Annexin A2/S100-A10 (P07355 whole entry): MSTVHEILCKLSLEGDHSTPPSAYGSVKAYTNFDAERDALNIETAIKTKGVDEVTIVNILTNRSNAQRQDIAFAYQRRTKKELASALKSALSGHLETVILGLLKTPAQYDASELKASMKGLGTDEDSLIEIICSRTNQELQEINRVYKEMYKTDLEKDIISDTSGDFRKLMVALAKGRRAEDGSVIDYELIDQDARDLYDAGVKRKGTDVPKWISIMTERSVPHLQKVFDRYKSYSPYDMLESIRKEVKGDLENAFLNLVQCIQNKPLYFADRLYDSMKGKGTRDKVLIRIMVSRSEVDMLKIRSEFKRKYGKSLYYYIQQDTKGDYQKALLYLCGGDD
Chain of Annexin A2/S100-A10 (P60903 whole entry): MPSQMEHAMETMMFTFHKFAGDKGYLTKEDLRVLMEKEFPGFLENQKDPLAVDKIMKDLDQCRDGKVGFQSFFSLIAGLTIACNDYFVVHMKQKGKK

[6] = Binding affinity to IFNalpha (unknown origin) assessed as reduction in IFNalpha/IFNAR2 interaction; parameters: species or system Homo sapiens
[7] = molecular target: Tumour suppressor p53/oncoprotein Mdm2 (Homo sapiens, UniProt P04637+Q00987); assay: Inhibition of MDM2/p53 (unknown origin) interaction by fluorescence polarization assay; format: protein assay
Chain of Tumour suppressor p53/oncoprotein Mdm2 (P04637 whole entry): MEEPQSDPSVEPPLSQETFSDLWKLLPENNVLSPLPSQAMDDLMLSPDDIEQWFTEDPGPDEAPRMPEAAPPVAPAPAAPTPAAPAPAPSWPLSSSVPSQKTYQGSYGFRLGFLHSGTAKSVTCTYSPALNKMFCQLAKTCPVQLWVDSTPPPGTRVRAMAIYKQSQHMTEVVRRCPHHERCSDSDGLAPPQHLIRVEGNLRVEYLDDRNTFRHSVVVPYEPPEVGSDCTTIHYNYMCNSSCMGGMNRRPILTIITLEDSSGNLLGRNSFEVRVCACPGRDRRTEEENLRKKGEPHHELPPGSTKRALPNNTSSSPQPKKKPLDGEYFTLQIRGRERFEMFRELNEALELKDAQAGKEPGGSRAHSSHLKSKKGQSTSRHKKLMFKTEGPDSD
Chain of Tumour suppressor p53/oncoprotein Mdm2 (Q00987 whole entry): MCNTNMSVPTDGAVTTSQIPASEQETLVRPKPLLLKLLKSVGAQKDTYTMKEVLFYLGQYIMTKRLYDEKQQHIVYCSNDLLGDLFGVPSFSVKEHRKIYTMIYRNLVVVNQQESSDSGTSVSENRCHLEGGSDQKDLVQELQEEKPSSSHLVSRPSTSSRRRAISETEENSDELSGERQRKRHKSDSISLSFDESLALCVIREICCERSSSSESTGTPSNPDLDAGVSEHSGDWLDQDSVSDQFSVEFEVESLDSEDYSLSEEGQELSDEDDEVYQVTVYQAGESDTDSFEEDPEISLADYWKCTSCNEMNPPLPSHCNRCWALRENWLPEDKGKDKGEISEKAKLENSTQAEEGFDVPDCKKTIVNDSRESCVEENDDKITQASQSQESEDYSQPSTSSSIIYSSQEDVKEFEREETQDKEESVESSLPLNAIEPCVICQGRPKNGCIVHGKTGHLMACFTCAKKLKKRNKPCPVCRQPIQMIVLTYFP

[8] = molecular target: T1, Urokinase plasminogen activator surface receptor (Homo sapiens, UniProt Q03405); assay: Binding affinity to uPAR (unknown origin) assessed as reduction in uPA-uPAR protein interaction
T1 sequence (Q03405 whole entry): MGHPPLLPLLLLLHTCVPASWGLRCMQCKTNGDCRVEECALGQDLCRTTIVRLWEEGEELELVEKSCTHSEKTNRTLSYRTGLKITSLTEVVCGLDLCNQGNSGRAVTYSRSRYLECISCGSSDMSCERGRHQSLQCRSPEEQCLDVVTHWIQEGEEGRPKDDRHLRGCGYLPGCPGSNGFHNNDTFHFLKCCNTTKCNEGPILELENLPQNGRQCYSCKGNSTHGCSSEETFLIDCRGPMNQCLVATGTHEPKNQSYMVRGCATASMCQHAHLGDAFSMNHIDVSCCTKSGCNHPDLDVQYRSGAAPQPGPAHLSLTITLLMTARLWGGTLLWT

[9] = molecular target: T1, Urokinase plasminogen activator surface receptor; assay: Binding affinity to uPAR (unknown origin)
[10] = molecular target: Keap1/Nrf2 (Homo sapiens, UniProt Q14145+Q16236); assay: Inhibition of Nrf2/Keap1 (unknown origin) protein interaction by fluorescence anisotropy method; format: protein assay
Chain of Keap1/Nrf2 (Q16236 whole entry): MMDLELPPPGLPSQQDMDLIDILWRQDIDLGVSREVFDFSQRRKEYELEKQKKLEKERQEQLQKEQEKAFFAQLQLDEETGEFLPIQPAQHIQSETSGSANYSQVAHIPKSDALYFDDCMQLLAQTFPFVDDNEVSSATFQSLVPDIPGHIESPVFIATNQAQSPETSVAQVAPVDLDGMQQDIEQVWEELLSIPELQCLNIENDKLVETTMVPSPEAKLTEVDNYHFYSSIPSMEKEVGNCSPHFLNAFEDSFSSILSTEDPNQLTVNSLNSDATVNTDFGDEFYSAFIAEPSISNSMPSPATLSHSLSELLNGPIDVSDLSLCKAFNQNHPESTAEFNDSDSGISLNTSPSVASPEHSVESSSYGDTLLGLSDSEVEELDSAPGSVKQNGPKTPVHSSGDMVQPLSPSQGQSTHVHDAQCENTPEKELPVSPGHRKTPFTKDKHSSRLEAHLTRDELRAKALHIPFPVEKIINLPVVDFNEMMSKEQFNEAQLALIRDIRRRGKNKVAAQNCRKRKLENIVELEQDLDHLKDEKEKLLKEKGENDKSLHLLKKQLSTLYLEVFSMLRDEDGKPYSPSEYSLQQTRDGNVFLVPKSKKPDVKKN
Chain of Keap1/Nrf2 (Q14145 whole entry): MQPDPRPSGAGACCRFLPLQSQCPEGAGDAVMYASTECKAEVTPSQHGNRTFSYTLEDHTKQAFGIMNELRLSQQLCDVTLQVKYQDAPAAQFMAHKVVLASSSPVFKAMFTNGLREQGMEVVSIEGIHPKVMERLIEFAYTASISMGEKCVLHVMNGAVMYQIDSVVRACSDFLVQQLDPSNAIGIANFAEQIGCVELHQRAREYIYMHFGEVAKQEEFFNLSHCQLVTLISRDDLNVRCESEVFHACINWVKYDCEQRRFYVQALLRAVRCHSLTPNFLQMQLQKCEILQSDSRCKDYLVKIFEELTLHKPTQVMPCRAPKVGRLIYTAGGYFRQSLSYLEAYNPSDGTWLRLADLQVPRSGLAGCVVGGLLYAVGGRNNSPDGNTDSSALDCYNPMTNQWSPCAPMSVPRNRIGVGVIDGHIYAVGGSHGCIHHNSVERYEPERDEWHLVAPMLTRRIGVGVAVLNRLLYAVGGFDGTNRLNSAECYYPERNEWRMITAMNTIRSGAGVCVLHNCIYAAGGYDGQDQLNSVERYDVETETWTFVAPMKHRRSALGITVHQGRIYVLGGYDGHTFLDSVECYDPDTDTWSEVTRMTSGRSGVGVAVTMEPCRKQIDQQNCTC

[11] = molecular target: T2, Alpha-crystallin B chain (Homo sapiens, UniProt P02511); assay: Binding affinity to CRYAB (unknown origin) assessed as reduction in CRYAB-VEGFA protein interaction
T2 sequence (P02511 whole entry): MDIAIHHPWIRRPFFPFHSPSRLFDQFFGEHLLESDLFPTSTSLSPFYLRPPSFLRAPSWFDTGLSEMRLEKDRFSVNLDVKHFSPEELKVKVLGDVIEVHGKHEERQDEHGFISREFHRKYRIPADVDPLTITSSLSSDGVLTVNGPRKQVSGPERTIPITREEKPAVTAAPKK

[12] = molecular target: Tumour suppressor protein p53/Mdm4 (Homo sapiens, UniProt O15151+P04637); assay: Inhibition of MDMX/p53 (unknown origin) interaction; format: protein assay
Chain of Tumour suppressor protein p53/Mdm4 (P04637 whole entry): as the sequence (P04637 whole entry) above
Chain of Tumour suppressor protein p53/Mdm4 (O15151 whole entry): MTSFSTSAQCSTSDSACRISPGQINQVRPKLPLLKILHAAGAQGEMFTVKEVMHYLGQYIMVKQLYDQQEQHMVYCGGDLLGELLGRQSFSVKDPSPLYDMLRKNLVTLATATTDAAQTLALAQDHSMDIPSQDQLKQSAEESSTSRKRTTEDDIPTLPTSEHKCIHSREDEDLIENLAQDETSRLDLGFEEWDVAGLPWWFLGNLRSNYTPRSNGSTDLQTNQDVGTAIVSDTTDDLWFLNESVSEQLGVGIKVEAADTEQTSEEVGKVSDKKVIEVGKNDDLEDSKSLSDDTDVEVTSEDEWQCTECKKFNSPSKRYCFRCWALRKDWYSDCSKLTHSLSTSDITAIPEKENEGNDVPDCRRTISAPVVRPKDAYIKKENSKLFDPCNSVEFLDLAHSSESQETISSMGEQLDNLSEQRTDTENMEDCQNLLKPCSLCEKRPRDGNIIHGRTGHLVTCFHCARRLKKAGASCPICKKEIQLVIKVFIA

Chain of Neuropilin-1 (O14786 whole entry): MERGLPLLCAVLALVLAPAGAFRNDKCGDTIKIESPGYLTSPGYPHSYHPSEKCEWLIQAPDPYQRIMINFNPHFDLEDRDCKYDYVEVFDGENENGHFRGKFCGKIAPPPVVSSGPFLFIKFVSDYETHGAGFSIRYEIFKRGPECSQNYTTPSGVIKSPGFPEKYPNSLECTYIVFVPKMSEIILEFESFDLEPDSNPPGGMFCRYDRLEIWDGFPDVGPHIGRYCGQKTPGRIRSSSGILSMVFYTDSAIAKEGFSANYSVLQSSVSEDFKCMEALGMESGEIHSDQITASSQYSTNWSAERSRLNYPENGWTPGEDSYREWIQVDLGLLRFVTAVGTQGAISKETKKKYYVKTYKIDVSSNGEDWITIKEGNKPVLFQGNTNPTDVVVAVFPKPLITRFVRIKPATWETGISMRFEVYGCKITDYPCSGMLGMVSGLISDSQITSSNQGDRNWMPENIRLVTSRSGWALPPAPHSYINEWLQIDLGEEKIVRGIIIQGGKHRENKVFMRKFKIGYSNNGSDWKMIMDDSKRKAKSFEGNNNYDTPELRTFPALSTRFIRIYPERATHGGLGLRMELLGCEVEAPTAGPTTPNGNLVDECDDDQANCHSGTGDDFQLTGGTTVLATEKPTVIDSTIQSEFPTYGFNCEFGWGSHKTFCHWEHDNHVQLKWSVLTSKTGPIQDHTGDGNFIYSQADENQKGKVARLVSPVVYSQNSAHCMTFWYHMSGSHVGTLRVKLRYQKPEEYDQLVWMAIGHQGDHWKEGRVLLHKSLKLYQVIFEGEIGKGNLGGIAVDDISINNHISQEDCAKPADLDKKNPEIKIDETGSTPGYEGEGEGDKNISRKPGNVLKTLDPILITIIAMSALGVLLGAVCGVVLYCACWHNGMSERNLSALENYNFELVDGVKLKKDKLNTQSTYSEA

In the case of `CC(C)C[C@H](NC(=O)c1ccc(NC(=O)[C@@H](N)Cc2c[nH]c3ccccc23)c(OCCc2c[nH]c3ccccc23)c1)C(=O)O`, the Ki [1] is reported as 1.5 µM.

In the case of `O=C(NC(=S)Nc1cccc(-c2nc3ccccc3[nH]2)c1)c1ccc2c(c1)OCCO2`, the IC50 [2] is reported as 9.3 µM and the IC50 [3] is reported as 0.2 µM.

For `COC(=O)[C@@H](CCCCNC(=O)OC(C)(C)C)NC(=O)CI`, the EC50 [4] was 0.64 µM.

`Cc1ccccc1OCc1nnc(SCC(N)=O)[nH]1` showed an IC50 [5] of 24 µM.

In the case of `CNCc1ccccc1Cc1cccc2ccccc12`, the IC50 [6] is reported as 4 µM.

For `O=C(O)c1ccccc1/N=N/C(=N\Nc1cc(S(=O)(=O)O)ccc1O)c1ccccc1`, the Ki [7] was 0.18 µM.

For `C[C@H]1C[C@H](C)CN(c2cc(Nc3ccccc3C(=O)O)c3c4c(onc24)-c2ccccc2C3=O)C1`, the IC50 [8] was 10 µM and the Kd [9] was 0.31 µM.

With `CCC(CC)c1ccc(S(=O)(=O)Nc2cc(Sc3nc[nH]n3)c(O)c3ccccc23)cc1` the Kd [10] was 2.9 µM.

Work on `CC(CC(=O)O)C(N)C(=O)O` (configuration not stated) yielded an IC50 [11] of 20 µM.

For `C[C@H](CCC(=O)O)[C@H]1CC[C@H]2[C@@H]3CC[C@@H]4C[C@H](O)CC[C@]4(C)[C@H]3CC[C@]12C` [LITHOCHOLIC ACID], the Kd [12] was 15 µM.
